Counter-ions that a name gives are not always drawn. No end group written: not given here.

From patent US20240374763A1, “DIAGNOSIS AND MONITORING USING EXTRADOMAIN-B FIBRONECTIN TARGETED PROBES” (Case Western Reserve University, priority 2020, published 2024) come the findings set out here.

Test [1] deals with T1, EDB-FN (Homo sapiens, UniProt P02751). The test is described as follows: Peptide binding study of OSCC spheroids with ZD2-Cy5.5. It is filed as cell-based. Particulars: ZD2-Cy5.5 125 nM, 15 minutes, ratio to Hoechst. Here is the method:
Coverslip plates (4-well, Ibidi GmbH, Martinsried, Germany) were coated with Cultrex Basement Membrane Matrix (350 μL, Trevigen, Gaithersburg, MA, USA). For spheroid formation, 2×10^5 OSCC cells were seeded into prepared wells, incubated for 2 days, and photographed with the Moticam T2 camera (Motic, Hong Kong, China). For peptide binding, 1×10^5 cells were seeded into prepared wells and incubated for 2 days. Spheroids were stained with ZD2-Cy5.5 (125 nM), synthesized as previously described, and Hoechst (1:2000 dilution) (Invitrogen, Carlsbad, CA, USA) dyes for 15 minutes, washed 3× with DPBS (Thermo Fisher Scientific), and imaged with confocal laser scanning microscopy using the Olympus FV1000 system (Olympus Life Science, Tokyo, Japan).
Confocal fluorescence images were analyzed using FIJI. For quantification, images were thresholded to generate ROIs of both stains. For spheroid size, the average size of Hoechst ROIs was calculated. For staining intensity, the average signal intensities of ZD2-Cy5.5 and Hoechst ROIs were calculated, along with the ratio between the average intensities.

Test [2] has as its target T1, EDB-FN. The test is described as follows: ZD2-Cy5.5 staining of human tissue. Also noted: from tissue; host or cells: deparaffinized sections of human pancreatic cancer, PanIN and normal pancreas. Particulars: 500 nM. The protocol: Tissue sections from PaCa patients (Case Comprehensive Cancer Center, Cleveland, OH) were deparaffinized with xylene, ethanol, and washed with water. Blocking was performed with 10% goat serum (Invitrogen, Carlsbad, CA) in PBS with 0.1% Tween 20 (PBS-T) for 30 minutes and incubated with 500 nM ZD2-Cy5.5 in PBS-T for 1 hour at 37° C. Following three washes with PBS-T, the sections were mounted using Fluoroshield mounting medium (Abcam, Cambridge, UK). Images were acquired on a FV1000 (Olympus, Waltham, MA) confocal microscope using pre-programmed emission and excitation filters for Cy5.5 (excitation: 635 nm; emission: 693 nm) and DAPI (excitation: 405 nm; emission: 461 nm), using a 10× objective lens. All tissue samples were imaged at the same laser power and sensor gain. Images were generated from single-channel grayscale images using FIJI software.

Test [3] has as its system EDB-FN. Put plainly: ZD2-Cy5.5 staining of frozen tissue sections, BC-1 blocking experiment. Particulars: PaCa xenograft tissue sections, excess BC1 antibody. Here is the method: For assessment of binding specificity of ZD2 peptide, flash frozen samples of tumor and normal tissues were collected from the euthanized tumor bearing mice and embedded in optimal cutting temperature media. The embedded samples were then immersed in liquid nitrogen for 5 minutes and transferred to −80° C. for storage before cryosectioning. Tissue sections were blocked for 1 hr in PBS containing 0.05% Tween-20 and 10% normal goat serum (Gibco, Gaithersburg, MD) and then stained with BC-1 primary monoclonal antibody (1:400) or ZD2-Cy5.5 (500 nM) at 4° C. overnight or room temperature incubation for 2.5 hr, respectively, and then washed with PBS-T buffer. Secondary Alexa Fluor 594 anti-rabbit was incubated with the BC-1 treated sections for 1 hour at room temperature (1:1000). For the blocking experiment, the tissue sections were first incubated with an excess of BC1 antibody at 4° C. overnight, then washed three times with PBS-T. The sections were then incubated with ZD2-Cy5.5 at room temperature incubation for 2.5 hr. The stained sections were washed with PBS-T buffer and images were acquired on an Olympus FV1000 (Waltham, MA) confocal microscope using pre-programmed emission and excitation filters for Cy5.5 (excitation: 635 nm; emission: 693 nm) and DAPI (excitation: 405 nm; emission: 461 nm), using a 10× objective lens.

The test system of test [4] is TGF-β-treated and drug-resistant MCF7 and MDA-MB-468 cells. The test is described as follows: MK2206-HCl treatment, transwell invasion assay. The format is cell-based. Particulars: TGFβ-treated and drug-resistant cell derivatives; 2 μM (MCF7) or 4 μM (MDA-MB-468) for 2 days. The protocol:
(§1) The invasive TGF-β-treated and drug-resistant MCF7 and MDA-MB-468 populations were treated with MK2206-HCl, a pan-AKT inhibitor, purchased from SelleckChem (Boston, MA). For this treatment, 8×10^5 cells were plated on 6-well plates. After 24 h of attachment, the cells were treated with MK2206-HCl for 2 days (2 μM dose for MCF7 cells and 4 μM dose for MDA-MB-468 cells). Cells treated with equivalent volume of DMSO were used as controls. After treatment, the cells were counted and an equal number of cells was plated on Matrigel and in transwell inserts for the invasion and 3D growth assays, as described in the relevant sections. The treated and non-treated cells were similarly counted and harvested for protein and RNA extraction for western blotting and qRT-PCR, respectively.
For the invasion assay, breast cancer cells were starved in serum-depleted media overnight. The next day, 1-2×10^5 cells were plated in transwell inserts (VWR, Radnor, PA) coated with 0.3 mg/mL Corning™ Matrigel™ Membrane Matrix (Corning, NY). After 1-2 days, the inserts were swabbed with Q-tips to remove the plated cells. The invading cells on the bottom of the inserts were fixed with 4% paraformaldehyde followed by staining with 0.1% crystal violet for 20 min. Excess stain was washed under tap water and images of the purple migrated cells were taken using the Moticam T2 camera with 10× objective lens.

Test [5] deals with phospho-AKT (T308 and S473). Put plainly: MK2206-HCl treatment, western blot of phospho-AKT. The format is cell-based. Particulars: invasive cell derivatives; 2 μM (MCF7) or 4 μM (MDA-MB-468) for 2 days. The protocol:
as §1, with “respectively. Total cellular protein was extracted as previously described. […] et al., (2019) Bioconjug Chem 30, 907-919. Protein concentration was determined by Lowry assay and equal concentration of protein extracts (40 μg) was loaded on SDS-PAGE gels, transferred onto nitrocellulose membrane and immunoblotted with primary antibodies overnight. Anti-EDB-FN antibody (G4 clone) was used at 1:1000 dilution. […]” for “respectively.”
(In general: Immunoblotting shows a protein as a band on a membrane.)

Test [6] deals with EDB-FN. Put plainly: MK2206-HCl treatment, qRT-PCR of EDB-FN. It is filed as cell-based. Particulars: MDA-MB-468-DR cells, 4 μM MK2206-HCl for 2 days, vs DMSO-treated controls. The protocol:
as §1
Total RNA was extracted from cells and tissues using the RNeasy Plus Mini Kit (Qiagen, Germantown, MD), according to manufacturer's instructions. RNA concentration was determined and 1 μg of RNA was used to set up reverse transcription using the miScript II RT Kit (Qiagen) and qPCR was performed using the SyBr Green PCR Master Mix (Applied Biosystems, CA). Gene expression was analyzed by the 2-ΔΔCt method with 18S or R-actin expression as the control.

The next test has as its system DLD1-DR tumors. Put plainly: MK2206-HCl therapy of DLD1-DR tumor-bearing mice, tumor volume. It is filed as in vivo. Particulars: for average tumor volume: treated group. Here is the method: For therapeutic monitoring, 3-4×10^6 DLD1-DR cells suspended in Matrigel-PBS mixture (1:1) were subcutaneously injected in the left flanks of 10 nude mice (100 μL per mouse, mice labeled TM1-TM10). Tumor volumes were monitored and measured once a week using a Vernier caliper. When the average tumor volumes reached 100 mm^3, mice were randomized into 2 groups of 5: vehicle (mice #TM1, TM3, TM4, TM5, & TM10) and treated (mice #TM2, TM6, TM7, TM8, & TM9). Once a week, mice in the treated group received MK2206-HCl (100 mg/kg) and those in the vehicle group were injected with equivalent volume of DMSO, as described previously. Smith, J. A., L. J. Stallons, and R. G. Schnellmann, Am J Physiol Renal Physiol, 2014. 307(4): p. F435-44. After 3 weeks of treatment, tumor volumes increased over 1000 mm^3 and the experiment was terminated. The animals were then euthanized, and the tumors were harvested for post-mortem histology and IHC. Tumor volumes were calculated as [(Width)2×Length]/2.

T1 sequence (P02751 32-2267 isoform P02751-13 limits assumed): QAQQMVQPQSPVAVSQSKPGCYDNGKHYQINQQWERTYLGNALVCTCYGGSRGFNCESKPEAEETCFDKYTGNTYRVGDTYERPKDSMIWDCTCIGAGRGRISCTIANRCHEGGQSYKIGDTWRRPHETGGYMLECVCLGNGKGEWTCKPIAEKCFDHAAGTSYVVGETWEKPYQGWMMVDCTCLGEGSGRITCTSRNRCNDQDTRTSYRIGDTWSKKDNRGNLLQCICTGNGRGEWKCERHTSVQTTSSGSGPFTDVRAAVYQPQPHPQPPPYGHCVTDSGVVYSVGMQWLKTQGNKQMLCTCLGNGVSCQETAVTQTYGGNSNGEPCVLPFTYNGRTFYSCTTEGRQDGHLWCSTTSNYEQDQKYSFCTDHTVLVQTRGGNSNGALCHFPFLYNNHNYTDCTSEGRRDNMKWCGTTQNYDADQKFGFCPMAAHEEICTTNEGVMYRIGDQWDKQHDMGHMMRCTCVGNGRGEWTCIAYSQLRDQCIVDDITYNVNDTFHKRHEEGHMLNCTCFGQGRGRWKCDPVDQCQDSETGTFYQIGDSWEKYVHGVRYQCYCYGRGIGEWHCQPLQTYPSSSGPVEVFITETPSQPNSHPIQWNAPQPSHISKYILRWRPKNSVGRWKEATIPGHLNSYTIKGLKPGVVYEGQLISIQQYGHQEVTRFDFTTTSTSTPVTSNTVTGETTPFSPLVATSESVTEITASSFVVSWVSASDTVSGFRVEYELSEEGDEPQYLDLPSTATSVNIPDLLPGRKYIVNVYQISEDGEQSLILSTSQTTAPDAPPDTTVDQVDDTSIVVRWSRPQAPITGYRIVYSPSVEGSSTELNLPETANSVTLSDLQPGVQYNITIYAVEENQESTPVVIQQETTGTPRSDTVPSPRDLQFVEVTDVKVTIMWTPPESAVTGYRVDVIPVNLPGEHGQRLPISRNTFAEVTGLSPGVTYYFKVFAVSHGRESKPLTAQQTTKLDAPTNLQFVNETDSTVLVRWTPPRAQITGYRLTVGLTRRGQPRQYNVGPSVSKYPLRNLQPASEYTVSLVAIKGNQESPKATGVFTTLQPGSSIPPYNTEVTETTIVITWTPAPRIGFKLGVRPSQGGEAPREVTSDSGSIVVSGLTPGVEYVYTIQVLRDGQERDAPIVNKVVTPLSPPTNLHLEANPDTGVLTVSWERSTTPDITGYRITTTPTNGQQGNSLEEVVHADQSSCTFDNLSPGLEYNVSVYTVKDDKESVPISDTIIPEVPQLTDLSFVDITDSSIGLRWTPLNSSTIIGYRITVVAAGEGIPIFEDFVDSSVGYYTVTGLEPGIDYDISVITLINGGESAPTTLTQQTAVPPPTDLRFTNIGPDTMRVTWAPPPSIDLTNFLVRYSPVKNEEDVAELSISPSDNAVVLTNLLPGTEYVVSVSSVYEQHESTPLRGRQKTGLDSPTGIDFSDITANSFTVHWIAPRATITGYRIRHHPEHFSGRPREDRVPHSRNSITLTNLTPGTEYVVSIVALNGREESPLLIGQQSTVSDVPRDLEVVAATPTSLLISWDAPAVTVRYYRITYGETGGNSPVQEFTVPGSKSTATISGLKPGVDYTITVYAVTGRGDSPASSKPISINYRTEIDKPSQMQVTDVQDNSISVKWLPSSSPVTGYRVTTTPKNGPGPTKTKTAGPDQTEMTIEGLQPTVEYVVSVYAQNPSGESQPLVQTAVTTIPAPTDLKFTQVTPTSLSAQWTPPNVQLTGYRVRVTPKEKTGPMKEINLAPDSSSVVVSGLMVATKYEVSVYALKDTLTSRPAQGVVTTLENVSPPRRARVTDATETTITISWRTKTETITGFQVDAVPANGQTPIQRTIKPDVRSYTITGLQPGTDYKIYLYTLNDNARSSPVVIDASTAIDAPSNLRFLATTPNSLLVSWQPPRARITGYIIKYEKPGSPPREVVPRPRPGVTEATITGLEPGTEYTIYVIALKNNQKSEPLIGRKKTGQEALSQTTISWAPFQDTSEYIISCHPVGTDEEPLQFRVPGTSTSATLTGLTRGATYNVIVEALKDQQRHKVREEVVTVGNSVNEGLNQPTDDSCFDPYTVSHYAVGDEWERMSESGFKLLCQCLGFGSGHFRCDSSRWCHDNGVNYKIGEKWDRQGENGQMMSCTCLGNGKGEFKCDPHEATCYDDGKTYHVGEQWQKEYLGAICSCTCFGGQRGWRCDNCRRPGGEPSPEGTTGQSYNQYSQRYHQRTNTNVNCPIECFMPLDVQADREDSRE

For “ZD2-Cy5.5: EDB-FN-specific fluorescent peptide probe, ZD2 peptide labeled with Cy5.5 (TVRTSAD; also: labeled with Cy5.5, site and linker not given here)”, the “staining intensity of SCC4 relative to HSC3 spheroids” value with EDB-FN [1] is on record as “approximately 2 fold”. Further, the ZD2-Cy5.5 binding entry is recorded as “high” with EDB-FN [2] (human PaCa tissue), “low” with EDB-FN [2] (normal pancreatic tissue) and “moderate” with EDB-FN [2] (precancerous PanIN tissue). Besides, the “ZD2-Cy5.5 binding in the presence of the anti-EDB-FN antibody” value in the test on EDB-FN [3] was “blocked”.

For `NC1(c2ccc(-c3nc4ccn5c(=O)[nH]nc5c4cc3-c3ccccc3)cc2)CCC1` [MK2206-HCl], in test [4], the invasive potential result is recorded as “reduced the invasive potential”. Moreover, the “inhibition of phospho-AKT (T308 and S473)” value in test [5] is recorded as “robust inhibition”. Further, the “decrease in EDB-FN mRNA” value in the test with EDB-FN [6] was 10-15%. The “tumor response to therapy” value in the test on DLD1-DR tumors (DLD1-DR tumors, MK2206-HCl 100 mg/kg once a week for 3 weeks) was “did not respond to therapy”. The average tumor volume is on record as 110.5±11.97 mm^3 with DLD1-DR tumors (week 1 (baseline), MK2206-HCl 100 mg/kg once a week) and 1249.7±199.3 mm^3 in the test on DLD1-DR tumors (week 4, after 3 weeks of MK2206-HCl 100 mg/kg once a week).
